The values that follow come from patent US6376666B1 (Nauchno-Issledovatelsky Institut Farmakologii Rossiiskoi …, priority 1994, dated 2002).

SMILES strings stand for the structures. Marks after values point to notes of the source that are not given here.

The conditions of data set [1]: after i.v. injection.
In data set [2] the test system is calcium chloride arrhythmia. The data set can be described thus: calcium chloride arrhythmia in concious rats. To be noted: concious rats, given 2 min prior calcium chloride 250-300 mg/kg i.v. The format is in vivo. How it is done: In these experiments the outbred concious rats 180-200 g of weight were injected with 10% solution of calcium chloride in tail vein at dose range of 250-300 mg/kg.

The test system of data set [3] is ventricular fibrillations. The data set can be described thus: ventricular fibrillation, 7-min occlusion and reperfusion of coronary artery in anesthetized rats. The format is in vivo. How it is done: The experiments were conducted in male rats weighing 180-240 g and anesthetized with nembutal (60 mg/kg i.v.) with open chest and artificial respiration. The occlusion of the left coronary artery was performed 1-2 min after experiment beginning with following reperfusion after 7 min. During this period time according to literature data [Krzeminski T., Grzyb J., Kurcok A., Brus R.: Pol.J.Pharmacol., 1992, 44, Suppl., p.169-170] the maximum number of ventricular fibrillations (70-100%) were registered. The ECG in the 2nd standard lead was recorded in “Mingograph-81”. The number of ventricular fibrillations during occlusion and reperfusion periods, the life menacing arrhythmia (fibrillation+paroxysmal ventricular tachycardia) and total number of arrhythmias were calculated. The known antiarrhythmic drug bonnecor was used as the reference agent [Grigorieva E. K., Gorbunova V. V. in: “New antiarrhythmic drug—bonnecor (the pharmacology and clinical usage)”, M., 1993, p.64-67]. The compounds were injected i.v. at the following doses: bonnecor—1,0 mg/kg, compound IX—2,0 mg/kg, compound XX—1,0 mg/kg. The control animals were administered with the equivalent volume of physiological solution (1,0 ml/kg). 4 series of experiments were carried out in 80 rats. The results were assessed according to the method of point scale: the absence of arrhythmia—0 point, extrasystole—1 point, paroxysmal ventricular tachycardia—2 points, ventricular fibrillation—3 points, fibrillation observed during the occlusion of coronary vessel—4 points. For statistical analysis the Fisher's exact probability and Wilconson's methods were used.
[Krzeminski T., Grzyb J., Kurcok A., Brus R.: Pol.J.Pharmacol., 1992, 44, Suppl., p.169-170] have shown that 7 min occlusion with following reperfusion of coronary artery in anesthetized rats produced the ventricular fibrillation (68-100%). Defibrotide and prostacycline decreased the number of fibrillations. We have studied the antifibrillator activity of some derivatives of 2-mercaptbenzimidazole in this model with disturbances of heart rhythm. Bonnecor (1,0 mg/kg) was used as the reference drug. It is well known that this agent produces apronouncedantifibrillatoryactivity [Grigorieva E. K., Gorbunova V. V. in: “New antiarrhythmic drug-bonnecor (the pharmacology and clinical usage)”, M., 1993, p.64-67].

A further data set has as its system aconitine arrhythmia. The data set can be described thus: animal or person. The format is in vivo, rats. To be noted: for LD50/ED50 (antiarrhythmic index): LD50 i.v. / ED50 aconitine arrhythmia; for Aconitine arrhythmia ED50: concious rats, i.v. 3 min prior aconitine. How it is done:
Aconitine arrhythmia. The aconitine arrhythmia was induced in concious rats weighing 180-200 g by the injection in tail vein of the aconitine sulfate solution at dose range of […]. […] The tested compounds were administered i.v. 3 min prior aconitine injection. The ED50 value was calculated according to Litchfield's method.

Take `CCOC(=O)Nc1ccc2c(c1)N(C(=O)CN(C)C)c1ccccc1CC2` [Bonnecor, bonnecor, reference compound]: in data set [1], the “Acute toxicity LD50” value is 11.5 mg/kg. The “Calcium chloride arrhythmia ED50 (mean effective dose)” value in data set [2] is 1.6 mg/kg. In data set [3] (anesthetized rats i.v., bonnecor 1,0, IX 2,0, X (printed) 1,0 mg/kg), the “antifibrillatory effect, in words” value was “decreased the number of both the ventricular fibrillations and lethality hazardous arrhythmia”. For the same compound, the “Number of VF (ventricular fibrillations)” value in data set [3] (anesthetized rats, 1 mg/kg i.v., 18 animals, control 15 of 24) is given as 6*. The “Number of LHA (lethality hazardous arrhythmia)” value in data set [3] (anesthetized rats, 1 mg/kg i.v., 18 animals, control 22 of 24) was 12*. For the same compound, in data set [3] (anesthetized rats, 1 mg/kg i.v., 18 animals, control 24 of 24), the “Total numbers of arrhyt.” value was determined as 16. The Severity of arrhythmias in data set [3] (anesthetized rats, 1 mg/kg i.v., 18 animals, control 66) is given as 36* points. Also, in the data set with aconitine arrhythmia, the “LD50/ED50 (antiarrhythmic index)” value turned out to be 50 and the “Aconitine arrhythmia ED50” value worked out at 0.23 mg/kg.

Take `CCOC(=O)Nc1ccc2c(c1)N(C(=O)CCN1CCOCC1)c1ccccc1S2` [Etmosin]: the “Acute toxicity LD50” value in data set [1] worked out at 16.4 mg/kg. In the data set on aconitine arrhythmia, the “LD50/ED50 (antiarrhythmic index)” value is on record as 58.6 and the “Aconitine arrhythmia ED50” value amounted to 0.28 mg/kg.
